# No end group written: not given here.
# Assays:
# Assay in all cases: 26RFa-induced calcium mobilization, receptor mutants
# QRFPR mutants [1] = target: T1, QRFPR mutants (Homo sapiens, UniProt Q96P65); type: cell-based
# T1 construct: expressed in transfected cells; host or cells: HEK293, transient transfection by electroporation
# Procedure: (§1) The gene encoding the WT QRFPR, PrPRR, KISS1R, NPFF1R, or NPFF2R was subcloned into the pcDNA3.0 vector with the addition of an N-terminal HA tag. All of the mutations used for functional studies were generated by QuickChange PCR and verified by DNA sequencing.
# (§2) HEK293 cells were obtained from ATCC (Manassas, VA, USA) and cultured in DMEM supplemented with 10% (v/v) FBS, 100 mg/L penicillin, and 100 mg/L streptomycin in 5% CO2 at 37 °C. For transient transfection, ~2.5 × 10^6 cells were mixed with 2 µg plasmids in 200 µL transfection buffer, and electroporation was carried out with a Scientz-2C electroporation apparatus (Scientz Biotech, Ningbo, China). The experiments were carried out 24 h after transfection.
# (§3) For QRFPR, PrRPR, and KISS1R, HEK293 cells transfected with WT receptor or its mutants were seeded at a density of 4 × 10^4 per well into 96-well culture plates and incubated for 24 h at 37 °C in 5% CO2. For NPFF1R and NPFF2R, plasmids were transfected into HEK293 cells stably expressing Gα16. On the next day, cells were incubated with 2 μmol/L Fluo-4 AM in HBSS supplemented with 5.6 mmol/L D-glucose and 250 μmol/L sulfinpyrazone at 37 °C for 45 min. After washing, cells were added with 50 μL HBSS and incubated at room temperature for 10 min, then 25 μL agonist buffer was dispensed into the well using a FlexStation III microplate reader (Molecular Devices), and intracellular calcium change was recorded at an excitation wavelength of 485 nm and an emission wavelength of 525 nm. EC50 and Emax values for each curve were calculated by Prism 8.0 software (GraphPad Software).
# T1 sequence (Q96P65 39-431, stated change not applied): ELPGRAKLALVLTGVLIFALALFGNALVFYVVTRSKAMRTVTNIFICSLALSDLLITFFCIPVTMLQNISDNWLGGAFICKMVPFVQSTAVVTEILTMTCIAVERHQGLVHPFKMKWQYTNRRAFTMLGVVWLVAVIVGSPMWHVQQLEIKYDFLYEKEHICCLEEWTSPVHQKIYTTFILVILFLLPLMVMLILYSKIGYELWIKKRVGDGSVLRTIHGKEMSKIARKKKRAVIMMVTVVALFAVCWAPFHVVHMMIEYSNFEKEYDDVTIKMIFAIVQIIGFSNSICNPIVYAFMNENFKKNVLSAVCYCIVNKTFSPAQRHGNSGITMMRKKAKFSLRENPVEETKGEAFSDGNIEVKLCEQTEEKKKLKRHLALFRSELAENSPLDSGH
# QRFPR mutants [2] = target: T2, QRFPR mutants (Homo sapiens, UniProt Q96P65, V101A); type: cell-based; conditions: HEK293, QRFPR V101^2.59A; HEK293, Fluo-4; mean ± S.E.M., n ≥ 3
# T2 construct: expressed in transfected cells; host or cells: HEK293, transient transfection by electroporation
# T2 sequence (Q96P65 whole entry V101A): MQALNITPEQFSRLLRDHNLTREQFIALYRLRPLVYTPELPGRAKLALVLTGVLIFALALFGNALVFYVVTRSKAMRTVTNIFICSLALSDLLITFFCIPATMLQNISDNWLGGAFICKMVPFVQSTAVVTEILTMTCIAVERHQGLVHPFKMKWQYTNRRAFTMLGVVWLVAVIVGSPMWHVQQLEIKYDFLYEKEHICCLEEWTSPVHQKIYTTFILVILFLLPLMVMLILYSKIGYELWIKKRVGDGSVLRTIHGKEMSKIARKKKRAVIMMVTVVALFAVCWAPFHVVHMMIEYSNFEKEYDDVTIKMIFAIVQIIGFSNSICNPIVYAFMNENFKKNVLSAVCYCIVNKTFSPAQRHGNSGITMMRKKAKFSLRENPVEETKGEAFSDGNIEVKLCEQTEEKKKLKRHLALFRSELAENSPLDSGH
# Procedure: as §1, §2, §3
# QRFPR mutants [3] = target: T3, QRFPR mutants (Homo sapiens, UniProt Q96P65); type: cell-based; conditions: HEK293, QRFPR Δ1-18; HEK293, Fluo-4; mean ± S.E.M., n ≥ 3
# T3 construct: expressed in transfected cells; host or cells: HEK293, transient transfection by electroporation
# Procedure: as §1, §2, §3
# T3 sequence (Q96P65 19-431, stated change not applied): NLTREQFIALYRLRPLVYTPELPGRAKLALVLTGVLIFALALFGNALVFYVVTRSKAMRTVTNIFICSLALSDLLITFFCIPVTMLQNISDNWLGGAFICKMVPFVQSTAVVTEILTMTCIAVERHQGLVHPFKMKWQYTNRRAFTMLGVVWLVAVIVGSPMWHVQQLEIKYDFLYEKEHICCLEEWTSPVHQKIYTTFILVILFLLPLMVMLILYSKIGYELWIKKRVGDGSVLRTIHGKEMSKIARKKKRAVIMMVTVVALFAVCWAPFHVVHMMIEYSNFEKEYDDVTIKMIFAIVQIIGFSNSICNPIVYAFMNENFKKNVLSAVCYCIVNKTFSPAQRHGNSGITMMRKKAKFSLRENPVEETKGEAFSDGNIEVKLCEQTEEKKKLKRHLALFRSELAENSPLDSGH
# QRFPR mutants [4] = target: T4, QRFPR mutants (Homo sapiens, UniProt Q96P65, I218A); type: cell-based; conditions: HEK293, QRFPR I218^5.42A; HEK293, Fluo-4; mean ± S.E.M., n ≥ 3
# T4 construct: expressed in transfected cells; host or cells: HEK293, transient transfection by electroporation
# T4 sequence (Q96P65 whole entry I218A): as the sequence (Q96P65 whole entry V101A) above, with A101V, I218A counted along it
# Procedure: as §1, §2, §3
# QRFPR mutants [5] = target: T5, QRFPR mutants (Homo sapiens, UniProt Q96P65, C200A); type: cell-based; conditions: HEK293, QRFPR C200^ECL2A; HEK293, Fluo-4; mean ± S.E.M., n ≥ 3
# T5 construct: expressed in transfected cells; host or cells: HEK293, transient transfection by electroporation
# T5 sequence (Q96P65 whole entry C200A): as the sequence (Q96P65 whole entry V101A) above, with A101V, C200A counted along it
# Procedure: as §1, §2, §3
# QRFPR mutants [6] = target: T6, QRFPR mutants (Homo sapiens, UniProt Q96P65, V129A); type: cell-based; conditions: HEK293, QRFPR V129^3.36A; HEK293, Fluo-4; mean ± S.E.M., n ≥ 3
# T6 construct: expressed in transfected cells; host or cells: HEK293, transient transfection by electroporation
# T6 sequence (Q96P65 whole entry V129A): as the sequence (Q96P65 whole entry V101A) above, with A101V, V129A counted along it
# Procedure: as §1, §2, §3
# QRFPR mutants [7] = target: T7, QRFPR mutants (Homo sapiens, UniProt Q96P65, W205A); type: cell-based; conditions: HEK293, QRFPR W205^ECL2A; HEK293, Fluo-4; mean ± S.E.M., n ≥ 3
# T7 construct: expressed in transfected cells; host or cells: HEK293, transient transfection by electroporation
# T7 sequence (Q96P65 whole entry W205A): as the sequence (Q96P65 whole entry V101A) above, with A101V, W205A counted along it
# Procedure: as §1, §2, §3
# QRFPR mutants [8] = target: T8, QRFPR mutants (Homo sapiens, UniProt Q96P65, E203A); type: cell-based
# T8 construct: expressed in transfected cells; host or cells: HEK293, transient transfection by electroporation
# T8 sequence (Q96P65 whole entry E203A): as the sequence (Q96P65 whole entry V101A) above, with A101V, E203A counted along it
# Procedure: as §1, §2, §3
# QRFPR mutants [9] = target: T9, QRFPR mutants (Homo sapiens, UniProt Q96P65, N110A); type: cell-based; conditions: HEK293, QRFPR N110^23.49A; HEK293, Fluo-4; mean ± S.E.M., n ≥ 3
# T9 construct: expressed in transfected cells; host or cells: HEK293, transient transfection by electroporation
# T9 sequence (Q96P65 whole entry N110A): as the sequence (Q96P65 whole entry V101A) above, with A101V, N110A counted along it
# Procedure: as §1, §2, §3
# QRFPR mutants [10] = target: T10, QRFPR mutants (Homo sapiens, UniProt Q96P65, M180A); type: cell-based; conditions: HEK293, QRFPR M180^4.60A; HEK293, Fluo-4; mean ± S.E.M., n ≥ 3
# T10 construct: expressed in transfected cells; host or cells: HEK293, transient transfection by electroporation
# T10 sequence (Q96P65 whole entry M180A): as the sequence (Q96P65 whole entry V101A) above, with A101V, M180A counted along it
# Procedure: as §1, §2, §3
# QRFPR mutants [11] = target: T11, QRFPR mutants (Homo sapiens, UniProt Q96P65, W111A); type: cell-based; conditions: HEK293, QRFPR W111^23.50A; HEK293, Fluo-4; mean ± S.E.M., n ≥ 3
# T11 construct: expressed in transfected cells; host or cells: HEK293, transient transfection by electroporation
# T11 sequence (Q96P65 whole entry W111A): as the sequence (Q96P65 whole entry V101A) above, with A101V, W111A counted along it
# Procedure: as §1, §2, §3
# QRFPR mutants [12] = target: T12, QRFPR mutants (Homo sapiens, UniProt Q96P65, F289A); type: cell-based
# T12 construct: expressed in transfected cells; host or cells: HEK293, transient transfection by electroporation
# T12 sequence (Q96P65 whole entry F289A): as the sequence (Q96P65 whole entry V101A) above, with A101V, F289A counted along it
# Procedure: as §1, §2, §3
# QRFPR mutants [13] = target: T13, QRFPR mutants (Homo sapiens, UniProt Q96P65, K189A); type: cell-based; conditions: HEK293, QRFPR K189^ECL2A; HEK293, Fluo-4; mean ± S.E.M., n ≥ 3
# T13 construct: expressed in transfected cells; host or cells: HEK293, transient transfection by electroporation
# T13 sequence (Q96P65 whole entry K189A): as the sequence (Q96P65 whole entry V101A) above, with A101V, K189A counted along it
# Procedure: as §1, §2, §3
# QRFPR mutants [14] = target: T14, QRFPR mutants (Homo sapiens, UniProt Q96P65, Y214A); type: cell-based; conditions: HEK293, QRFPR Y214^5.38A; HEK293, Fluo-4; mean ± S.E.M., n ≥ 3
# T14 construct: expressed in transfected cells; host or cells: HEK293, transient transfection by electroporation
# T14 sequence (Q96P65 whole entry Y214A): as the sequence (Q96P65 whole entry V101A) above, with A101V, Y214A counted along it
# Procedure: as §1, §2, §3
# QRFPR mutants [15] = target: T15, QRFPR mutants (Homo sapiens, UniProt Q96P65, L104A); type: cell-based; conditions: HEK293, QRFPR L104^2.62A; HEK293, Fluo-4; mean ± S.E.M., n ≥ 3
# T15 construct: expressed in transfected cells; host or cells: HEK293, transient transfection by electroporation
# T15 sequence (Q96P65 whole entry L104A): as the sequence (Q96P65 whole entry V101A) above, with A101V, L104A counted along it
# Procedure: as §1, §2, §3
# QRFPR mutants [16] = target: T16, QRFPR mutants (Homo sapiens, UniProt Q96P65, L222A); type: cell-based
# T16 construct: expressed in transfected cells; host or cells: HEK293, transient transfection by electroporation
# T16 sequence (Q96P65 whole entry L222A): as the sequence (Q96P65 whole entry V101A) above, with A101V, L222A counted along it
# Procedure: as §1, §2, §3
# QRFPR mutants [17] = target: T17, QRFPR mutants (Homo sapiens, UniProt Q96P65, P122A); type: cell-based; conditions: HEK293, QRFPR P122^3.29A; HEK293, Fluo-4; mean ± S.E.M., n ≥ 3
# T17 construct: expressed in transfected cells; host or cells: HEK293, transient transfection by electroporation
# T17 sequence (Q96P65 whole entry P122A): as the sequence (Q96P65 whole entry V101A) above, with A101V, P122A counted along it
# Procedure: as §1, §2, §3
# QRFPR mutants [18] = type: cell-based, human
# Procedure: as §1, §2, §3
substance,measurement,setting,value
ASGPLGTLAEELSSYSRRKGGFSFRF-NH2 [26RFa],Emax,"QRFPR mutants [1]; HEK293, QRFPR Δ1-38, HEK293, Fluo-4, mean ± S.E.M., n ≥ 3",14.7 ± 1.5%
same,peptide-induced QRFPR activity,QRFPR mutants [1]; QRFPR Δ1–38 (entire N-terminus truncated),abolished the peptide-induced QRFPR activity
same,Emax,QRFPR mutants [2],102 ± 1.7%
same,Emax,QRFPR mutants [3],53.2 ± 0.75%
same,Emax,QRFPR mutants [4],77.8 ± 0.31%
same,Emax,QRFPR mutants [5],88.5 ± 1.2%
same,Emax,QRFPR mutants [6],42.7 ± 0.71%
same,Emax,QRFPR mutants [7],2.58 ± 1.2%
same,effect of E^45.52 to alanine,"QRFPR mutants [8]; 26RFa, QRFPR",remarkable decline of activity or potency
same,Emax,"QRFPR mutants [8]; HEK293, QRFPR E203^45.52A, HEK293, Fluo-4, mean ± S.E.M., n ≥ 3",96.9 ± 0.64%
same,Emax,QRFPR mutants [9],98.6 ± 2.3%
same,Emax,QRFPR mutants [10],93.3 ± 1%
same,Emax,QRFPR mutants [11],73.4 ± 1.7%
same,Emax,"QRFPR mutants [12]; HEK293, QRFPR F289^6.51A, HEK293, Fluo-4, mean ± S.E.M., n ≥ 3",54.4 ± 1.4%
same,effect of mutation on 26RFa activity,QRFPR mutants [12]; QRFPR F289^6.51 to alanine,dramatic decrease in the activity of 26RFa
same,Emax,QRFPR mutants [13],94.9 ± 1.6%
same,Emax,QRFPR mutants [14],1.42 ± 0.7%
same,Emax,QRFPR mutants [15],109 ± 0.69%
same,effect of L^5.46 on peptide activity,"QRFPR mutants [16]; 26RFa, QRFPR L^5.46 (Supplementary Fig. S3)",negligible effects
same,Emax,"QRFPR mutants [16]; HEK293, QRFPR L222^5.46A, HEK293, Fluo-4, mean ± S.E.M., n ≥ 3",99 ± 1.3%
same,Emax,QRFPR mutants [17],96.7 ± 1.4%
same,role of Q^3.32 and Q/H^7.39 in activity,"QRFPR mutants [18]; 26RFa, QRFPR",critical for the activity
same,effect of mutation on QRFPR activation,"QRFPR mutants [18]; alanine substitution of W111^23.50 and two conserved cysteines (C118^3.25, C201^45.50)",notably hampered QRFPR activation
same,role of residues in 26RFa-induced receptor activation,"QRFPR mutants [18]; residues around Arg25-Phe26-amide except I218^5.42 (E203, Q318, Y214, V129, F289, Q125, C98, F322)",essential for 26RFa-induced receptor activation
